Measured values published in patent US11591353B2 (Mindset Pharma Inc., priority 2020, dated 2023).
Where two headings read alike, the source gives them in different places.

Legend:
[1] = Liver microsomes stability, rat; settings: for Remaining Percentage (%) after 60 min Rat: 2 μM, 0.5 mg/mL microsomes
Method: (§1) The objective of this study was to estimate in vitro metabolic stability of I-12 in pooled human, male rat and male mouse liver microsomes. The concentrations of parent compounds in reaction systems were evaluated by LC-MS/MS for estimating the stability in pooled human, male rat and male mouse liver microsomes. The in vitro intrinsic clearances of test compounds were determined as well.
(§2) A master solution in the “Incubation Plate” containing phosphate buffer, ultra-pure H2O, MgCl2 solution and liver microsomes was made according to Table-3. The mixture was pre-warmed at 37° C. water bath for 5 minutes.
(§3) 40 μL of 10 mM NADPH solution was added to each well. The final concentration of NADPH was 1 mM. The negative control samples were prepared by replacing NADPH with 40 μL of ultra-pure H2O. Samples were prepared in duplicate. Negative controls were prepared in singlet.
(§4) The reaction was started with the addition of 4 μL of 200 μM exemplary test compounds of the application or control compounds to each master solution to get the final concentration of 2 μM. This study was performed in duplicate.
(§5) Aliquots of 50 μL were taken from the reaction solution at 0, 15, 30, 45 and 60 minutes. The reaction solutions were stopped by the addition of 4 volumes of cold methanol with IS (100 nM alprazolam, 200 nM imipramine, 200 nM labetalol and 2 μM ketoprofen). Samples were centrifuged at 3,220 g for 40 minutes. Aliquot of 90 μL of the supernatant was mixed with 90 μL of ultra-pure H2O and then was used for LC-MS/MS analysis.
(§6) LC/MS analysis was performed for all samples from this study using a Shimadzu liquid chromatograph separation system equipped with degasser DGU-20A5R; solvent delivery unit LC-30AD; system controller SIL-30AC; column oven CTO-30A; CTC Analytics HTC PAL System. Mass spectrometric analysis was performed using an Triple Quad™ 5500 instrument.
(§7) All calculations were carried out using Microsoft Excel. Peak area ratios of test compound to internal standard (listed in the below table) were determined from extracted ion chromatograms.
(§8) All calculations were carried out using Microsoft Excel. Peak areas were determined from extracted ion chromatograms. The slope value, k, was determined by linear regression of the natural logarithm of the remaining percentage of the parent drug vs. incubation time curve.
(§9) Conversion of the in vitro t1/2 (min) into the in vitro intrinsic clearance (in vitro CLint, in μL/min/mg proteins) was done using the following equation (mean of duplicate determinations): […]

[2] = Liver microsomes stability, human; settings: for Remaining Percentage (%) after 60 min Human: 2 μM, 0.5 mg/mL microsomes
Method: as §1, §2, §3, §4, §5, §6, §7, §8, §9

[3] = Liver microsomes stability, mouse; settings: for Remaining Percentage (%) after 60 min Mouse: 2 μM, 0.5 mg/mL microsomes
Method: as §1, §2, §3, §4, §5, §6, §7, §8, §9

[4] = tobacco use disorder, cited from earlier work
[5] = molecular target: human 5-HT2A (h5-HT2A) receptor (Homo sapiens (Human), UniProt P28223); assay: FLIPR assay, human 5-HT2A receptor under agonist mode; format: cell-based; settings: agonist mode, FLIPR calcium assay; read-out: h5-HT2A EC50
Method: • I. Assessment of the activated effect of exemplary compounds of Formula I targeting on human 5-HT2A (h5-HT2A) receptor under agonist mode: Compound Preparation and Assay Controls I.a. Reagent and Materials:
1. Culture the cells in cell culture medium (DMEM containing 10% FBS 1× penicillin-streptomycin 300 μg/ml G418 and 100 μg/ml hygromycin B) at 37° C., 5% (v/v) CO2.
2. One day before the assays, detach the cell using TrypLE™ Express and count cells using cell counter.
3. Seed 20000 cells/well in 30 μl/well culture medium to a 384-well cell plate and incubate the cells overnight at 37° C., 5% (v/v) CO2.
4. On the assay day, prepare 2× dye solution following the manual of the FLIPR® Calcium 6 Assay Kit: i. Dilute the dye with assay buffer (20 mM HEPES in 1×HBSS, PH7.4); ii. Add probenecid to the final concentration of 5 mM; iii. Vortex vigorously for 1-2 minutes.
5. Medium from cell plate by flicking the cell plate on towel papers.
6. Add 10 μl of assay buffer and 10 μl of 2× dye solution to each well of the cell plate.
7. Put the cell plate on plate shaker, agitate the plate at 600 rpm for 2 minutes. Incubate the plate at 37° C. for 2 hours followed by additional 15-minute incubation at 25° C.
8. Prepare 3× compound in assay buffer: a. Dilute reference compounds to required concentration with DMSO. Add the compounds to a 384-well compound plate; b. Perform serial dilutions; c. Add 10 mM test compounds to the compound plate, perform 3-fold serial dilutions. d. […] Add 20 μl/well assay buffer to the compound plate; f. Mix the plate on plate shaker for 2 mins;
i. The normalized fluorescence reading (RFU) is calculated as shown follow, while Fmax and Fmin stand for maximum and minimum of calcium signal during defined time window: RFU=Fmax−Fmin
ii. Calculate the percentage activation by using following equation: […]
iii. Calculate EC50 by fitting % activation against log of compound concentrations with Hill equation using XLfit.

human 5-HT2A receptor = human 5-HT2A receptor (Homo sapiens (Human), UniProt P28223); assay: Radioligand binding assay on human 5-HT2A receptor ([3H]-ketanserin)
Method: i. Prepare the assay buffer following the table below;
ii. Preparation of 8 doses of reference and test compounds starting from 10 mM stock solution as requested by 5-fold serial dilutions with 100%;
iii. […] a. Add 50 μl/well of 0.5% (v/v) PEI to UniFilter-96 GF/B plates. Seal the plates and incubate at 4° C. for 3 hrs; b. After incubation, wash the plates 3 times with ice-cold wash buffer (50 mM Tris, pH7.4);
iv. Preparation of assay plates: a. Dilute cell membrane with assay buffer and add 330 μl/well to 96 round deep well plates to reach a concentration of 20 μg/well; b. […] Dilute [3H]-ketanserin with assay buffer to 5 nM (5× final concentration) and add 110 μl/well to 96 round deep well plates.
v. Centrifuge the plate at 1000 rpm for 30 secs and then agitate at 600 rpm, R.T. for 5 min.
vii. Stop the incubation by vacuum filtration onto GF/B filter plates followed by 4 times washing with ice-cold wash buffer (50 mM Tris, pH7.4).
ix. […]
For reference and exemplary test compounds of the application, the results are expressed as % Inhibition, using the normalization equation: N=100−100×(U−C2)/(C1−C2), where U is the unknown value, C1 is the average of high controls, and C2 is the average of low controls. The IC50 is determined by fitting percentage of inhibition as a function of compound concentrations with Hill equation using XLfit.

| Structure (SMILES) | CLint (μL/min/mg protein) Rat ([1]; with NADPH) [μL/min/mg protein] | t1/2 (min) Rat ([1]; with NADPH) [min] | Remaining Percentage (%) after 60 min Rat ([1]; with NADPH) [%] | CLint (μL/min/mg protein) Human ([2]; with NADPH) [μL/min/mg protein] | t1/2 (min) Human ([2]; with NADPH) [min] | Remaining Percentage (%) after 60 min Human ([2]; with NADPH) [%] | CLint (μL/min/mg protein) Mouse ([3]; with NADPH) [μL/min/mg protein] | t1/2 (min) Mouse ([3]; with NADPH) [min] | Remaining Percentage (%) after 60 min Mouse ([3]; with NADPH) [%] | abstinence rate ([4]; 12 months follow-up) [%] | abstinence rate ([4]; six months follow-up) [%] | EC50 [5] [nM] | half-life at 2 μM ([1]; male, rat, microsomes) [h] | microsomal CLint at 2 μM ([1]; male, rat, microsomes) [µL/min/mg] | IC50 (human 5-HT2A receptor) [nM] | half-life at 2 μM ([2]; human, microsomes) [h] | microsomal CLint at 2 μM ([2]; human, microsomes) [µL/min/mg] | metabolic stability in liver microsomes (in words) ([2]; human, rat and mouse liver microsomes, 60 minute) | half-life at 2 μM ([3]; male, mouse, microsomes) [h] | microsomal CLint at 2 μM ([3]; male, mouse, microsomes) [µL/min/mg] |
| --- | --- | --- | --- | --- | --- | --- | --- | --- | --- | --- | --- | --- | --- | --- | --- | --- | --- | --- | --- | --- |
| CN(C)CCc1c[nH]c2cccc(O)c12 [Psilocin, 4-hydroxy-N,N-dimethyltryptamine, reference compound] | 15.57 | 89.01 | 62.68 | 11.81 | 117.32 | 70.16 | 9.78 | 141.71 | 96.89 |  |  |  |  |  |  |  |  |  |  |  |
| CN(C)CCc1c[nH]c2cccc(OP(=O)(O)O)c12 [psilocybin, 4-phosphoryloxy-N,N-dimethyltrypatmine] |  |  |  |  |  |  |  |  |  | 67 | 80 |  |  |  |  |  |  |  |  |  |
| [2H]C([2H])([2H])N(C([2H])([2H])[2H])C([2H])([2H])C([2H])([2H])c1c[nH]c2cccc(OCc3ccccc3)c12 [Compound I-46, 2-(4-(benzyloxy)-1H-indol-3-yl)-N,N-bis(methyl-d3)ethan-1-amine-1,1,2,2-d4] |  |  | 108.23 |  |  | 58.94 |  |  | 44.75 |  |  | 72.6 | 0.593 | 39 | 106 | 1.31 | 17.6 | rapidly metabolized | 0.862 | 26.8 |
